Laboratory results taken from ChEMBL document CHEMBL3407452, “Linear and branched alkyl-esters and amides of gallic acid and other (mono-, di- and tri-) hydroxy benzoyl derivatives as promising anti-HCV inhibitors” (Eur J Med Chem, 2015).
Active and inactive are the calls of the source. The rule behind the calls is not given here.

test system: Sindbis virus; test: Antiviral activity against sindbis virus; type: functional, organism-based; conditions: not given

Q: With `O=C(NCCCCCCCCCCCCNC(=O)c1ccc(O)c(O)c1O)c1ccc(O)c(O)c1O` as the compound, how does the Activity read?
A: inactive

test system: Punta Toro virus; test: Antiviral activity against punta toro virus; type: functional, organism-based; conditions: not given

Q: With `O=C(NCCCCCCCCCCCCNC(=O)c1ccc(O)c(O)c1O)c1ccc(O)c(O)c1O` as the compound, how does the Activity read?
A: inactive

test system: not listed separately; test: Selectivity index, ratio of CC50 for human Huh5-2 cells to EC50 for HCV genotype 1b; parameters: species or system Huh-5-2; conditions: not given

Q: Which “Ratio CC50/EC50” value does the source give for `O=C(NCCCCCCCCCCCCNC(=O)c1ccc(O)c(O)c1O)c1ccc(O)c(O)c1O` here?
A: >40

test system: not listed separately; test: Cytotoxicity against human Huh5-2 cells after 72 hrs by MTS assay; type: cell-based, Huh-5-2; conditions: not given

Q: Which CC50 at 72 h does the source give for `O=C(NCCCCCCCCCCCCNC(=O)c1ccc(O)c(O)c1O)c1ccc(O)c(O)c1O` here?
A: > 100 µM

test system: Reovirus sp.; test: Antiviral activity against reovirus; type: functional, organism-based; conditions: not given

Q: For `O=C(NCCCCCCCCCCCCNC(=O)c1ccc(O)c(O)c1O)c1ccc(O)c(O)c1O`, which Activity is on record?
A: inactive

test system: not listed separately; test: Cytotoxicity against human HuH6 cells after 72 hrs by MTS assay; type: cell-based; conditions: not given

Q: Which CC50 at 72 h does the source give for `O=C(NCCCCCCCCCCCCNC(=O)c1ccc(O)c(O)c1O)c1ccc(O)c(O)c1O` here?
A: > 100 µM

test system: Hepatitis C virus; test: Antiviral activity against HCV genotype 1b I389luc-ubi-neo/NS3-3'/5.1 replicons infected in human HuH6 HCV subgenomic replicon-containing cells assessed as reduction in virus replication after 3 days by RT-qPCR method; type: functional, Hepacivirus hominis; conditions: HuH-6, 72 h

Q: For `O=C(NCCCCCCCCCCCCNC(=O)c1ccc(O)c(O)c1O)c1ccc(O)c(O)c1O`, which EC50 is on record?
A: 33 µM

test system: Vesicular stomatitis virus; test: Antiviral activity against vesicular stomatitis virus; type: functional, organism-based; conditions: not given

Q: With `O=C(NCCCCCCCCCCCCNC(=O)c1ccc(O)c(O)c1O)c1ccc(O)c(O)c1O` as the compound, how does the Activity read?
A: inactive

test system: Human immunodeficiency virus 2; test: Antiviral activity against HIV2 ROD infected in human CEM cells assessed as reduction in virus-induced cytopathicity after 4 to 5 days by microscopy based syncytium cell formation assay; type: functional, organism-based, ISOLATE ROD, CCRF-CEM; conditions: Human immunodeficiency virus 2, ISOLATE ROD, CCRF-CEM; read-out: EC50

Q: For `O=C(NCCCCCCCCCCCCNC(=O)c1ccc(O)c(O)c1O)c1ccc(O)c(O)c1O`, which EC50 is on record?
A: > 10 µM

test system: Influenza A virus H3N2; test: Antiviral activity against influenza A virus H3N2; type: functional, organism-based; conditions: not given

Q: For `O=C(NCCCCCCCCCCCCNC(=O)c1ccc(O)c(O)c1O)c1ccc(O)c(O)c1O`, which Activity is on record?
A: inactive

test system: not listed separately; test: Cytotoxicity against human Huh-9-13 cells assessed as alteration in cell morphology at 1 uM to 11 uM after 3 days by nile red staining based confocal microscopy; conditions: 72 h

Q: With `O=C(NCCCCCCCCCCCCNC(=O)c1ccc(O)c(O)c1O)c1ccc(O)c(O)c1O` as the compound, how does the Activity read?
A: Non-toxic

test system: Human respirovirus 3; test: Antiviral activity against human parainfluenza virus 3; type: functional, organism-based; conditions: not given

Q: For `O=C(NCCCCCCCCCCCCNC(=O)c1ccc(O)c(O)c1O)c1ccc(O)c(O)c1O`, which Activity is on record?
A: inactive

test system: Coxsackievirus B4; test: Antiviral activity against human coxsackievirus B4; type: functional, organism-based; conditions: not given

Q: With `O=C(NCCCCCCCCCCCCNC(=O)c1ccc(O)c(O)c1O)c1ccc(O)c(O)c1O` as the compound, how does the Activity read?
A: inactive

test system: not listed separately; test: Cytotoxicity against human CEM cells assessed as inhibition of cell proliferation; type: cell-based; conditions: CEM cells (CCRF-CEM)

Q: Which CC50 does the source give for `O=C(NCCCCCCCCCCCCNC(=O)c1ccc(O)c(O)c1O)c1ccc(O)c(O)c1O` here?
A: 55 µM

test system: Felid alphaherpesvirus 1; test: Antiviral activity against feline herpesvirus; type: functional, organism-based; conditions: not given

Q: Which Activity does the source give for `O=C(NCCCCCCCCCCCCNC(=O)c1ccc(O)c(O)c1O)c1ccc(O)c(O)c1O` here?
A: inactive

test system: not listed separately; test: Induction of phospholipidosis in human Huh-9-13 cells assessed as increase in charged lipid content at 33 uM to 100 uM after 3 days by nile red staining based confocal microscopy; type: cell-based; conditions: 72 h

Q: With `O=C(NCCCCCCCCCCCCNC(=O)c1ccc(O)c(O)c1O)c1ccc(O)c(O)c1O` as the compound, how does the Activity read?
A: Toxic

test system: Vaccinia virus; test: Antiviral activity against vaccinia virus; type: functional, organism-based; conditions: Orthopoxvirus vaccinia

Q: For `O=C(NCCCCCCCCCCCCNC(=O)c1ccc(O)c(O)c1O)c1ccc(O)c(O)c1O`, which Activity is on record?
A: inactive

test system: Chikungunya virus; test: Antiviral activity against chikungunya virus; type: functional; conditions: not given

Q: For `O=C(NCCCCCCCCCCCCNC(=O)c1ccc(O)c(O)c1O)c1ccc(O)c(O)c1O`, which Activity is on record?
A: inactive

test system: Influenza A virus; test: Antiviral activity against influenza A virus (H1N1); type: functional, organism-based; conditions: not given

Q: With `O=C(NCCCCCCCCCCCCNC(=O)c1ccc(O)c(O)c1O)c1ccc(O)c(O)c1O` as the compound, how does the Activity read?
A: inactive

test system: Hepatitis C virus; test: Antiviral activity against HCV genotype 1b I389luc-ubi-neo/NS3-3'/5.1 replicons infected in human Huh-9-13 HCV subgenomic replicon-containing cells assessed as reduction in virus replication after 3 days by RT-qPCR method; type: functional, Hepacivirus hominis; conditions: 72 h

Q: For `O=C(NCCCCCCCCCCCCNC(=O)c1ccc(O)c(O)c1O)c1ccc(O)c(O)c1O`, which EC50 is on record?
A: 8.4 µM

test system: not listed separately; test: Cytotoxicity against human Huh-9-13 cells assessed as alteration in cell morphology at 33 uM to 100 uM after 3 days by nile red staining based confocal microscopy; conditions: 72 h

Q: With `O=C(NCCCCCCCCCCCCNC(=O)c1ccc(O)c(O)c1O)c1ccc(O)c(O)c1O` as the compound, how does the Activity read?
A: Toxic

test system: not listed separately; test: Cytotoxicity against human Huh-9-13 cells after 72 hrs by MTS assay; type: cell-based; conditions: not given

Q: Which CC50 at 72 h does the source give for `O=C(NCCCCCCCCCCCCNC(=O)c1ccc(O)c(O)c1O)c1ccc(O)c(O)c1O` here?
A: > 100 µM

test system: not listed separately; test: Induction of phospholipidosis in human Huh-9-13 cells assessed as increase in charged lipid content at 1 uM to 11 uM after 3 days by nile red staining based confocal microscopy; type: cell-based; conditions: 72 h

Q: For `O=C(NCCCCCCCCCCCCNC(=O)c1ccc(O)c(O)c1O)c1ccc(O)c(O)c1O`, which Activity is on record?
A: Non-toxic

test system: Respiratory syncytial virus; test: Antiviral activity against RSV; type: functional, organism-based; conditions: not given

Q: For `O=C(NCCCCCCCCCCCCNC(=O)c1ccc(O)c(O)c1O)c1ccc(O)c(O)c1O`, which Activity is on record?
A: inactive

test system: not listed separately; test: Cytotoxicity against human Huh-9-13 cells assessed as reduction in cell number at 33 uM to 100 uM after 3 days by nile red staining based confocal microscopy; conditions: 72 h

Q: For `O=C(NCCCCCCCCCCCCNC(=O)c1ccc(O)c(O)c1O)c1ccc(O)c(O)c1O`, which Activity is on record?
A: Toxic

test system: not listed separately; test: Cytotoxicity against human Huh-9-13 cells assessed as reduction in cell number at 1 uM to 11 uM after 3 days by nile red staining based confocal microscopy; conditions: 72 h

Q: Which Activity does the source give for `O=C(NCCCCCCCCCCCCNC(=O)c1ccc(O)c(O)c1O)c1ccc(O)c(O)c1O` here?
A: Non-toxic

test system: Hepatitis C virus; test: Antiviral activity against HCV genotype 1b I389luc-ubi-neo/NS3-3'/5.1 replicons infected in human Huh5-2 HCV subgenomic replicon-containing cells assessed as reduction in virus replication after 3 days by luciferase reporter gene assay; type: functional, Hepacivirus hominis; conditions: Hepatitis C virus, genotype 1b, Huh-5-2, 72 h

Q: Which EC90 does the source give for `O=C(NCCCCCCCCCCCCNC(=O)c1ccc(O)c(O)c1O)c1ccc(O)c(O)c1O` here?
A: 6.1 µM

same assay, conditions: Hepatitis C virus, genotype 1b, Huh-5-2, 72 h; read-out: EC50

Q: For `O=C(NCCCCCCCCCCCCNC(=O)c1ccc(O)c(O)c1O)c1ccc(O)c(O)c1O`, which EC50 is on record?
A: 2500 nM

test system: Human immunodeficiency virus 1; test: Antiviral activity against HIV1 3B infected in human CEM cells assessed as reduction in virus-induced cytopathicity after 4 to 5 days by microscopy based syncytium cell formation assay; type: functional, organism-based, CCRF-CEM; conditions: Human immunodeficiency virus 1, 3B, CCRF-CEM; read-out: EC50

Q: Which EC50 does the source give for `O=C(NCCCCCCCCCCCCNC(=O)c1ccc(O)c(O)c1O)c1ccc(O)c(O)c1O` here?
A: > 10 µM

test system: Feline coronavirus; test: Antiviral activity against feline coronavirus; type: functional, organism-based; conditions: not given

Q: For `O=C(NCCCCCCCCCCCCNC(=O)c1ccc(O)c(O)c1O)c1ccc(O)c(O)c1O`, which Activity is on record?
A: inactive
